Data: patent US11116760B2 (Gilead Sciences, Inc., priority 2018, dated 2021)

Target: α4β7 integrin (Homo sapiens (Human), UniProt P13612+P26010)
Test: α4β7 Integrin Cell Capture Assay
Format: cell-based
[1] = Table 1, capture of α4β7 expressing RPM18866 cells on MadCAM-1 extracellular domain-coated plate
[2] = Table 2, capture of α4β7 expressing RPM18866 cells on MadCAM-1 extracellular domain-coated plate
[3] = RPMI8866 cells captured on MadCAM-1 extracellular domain-coated plate

Chain of α4β7 integrin (P13612 34-1032): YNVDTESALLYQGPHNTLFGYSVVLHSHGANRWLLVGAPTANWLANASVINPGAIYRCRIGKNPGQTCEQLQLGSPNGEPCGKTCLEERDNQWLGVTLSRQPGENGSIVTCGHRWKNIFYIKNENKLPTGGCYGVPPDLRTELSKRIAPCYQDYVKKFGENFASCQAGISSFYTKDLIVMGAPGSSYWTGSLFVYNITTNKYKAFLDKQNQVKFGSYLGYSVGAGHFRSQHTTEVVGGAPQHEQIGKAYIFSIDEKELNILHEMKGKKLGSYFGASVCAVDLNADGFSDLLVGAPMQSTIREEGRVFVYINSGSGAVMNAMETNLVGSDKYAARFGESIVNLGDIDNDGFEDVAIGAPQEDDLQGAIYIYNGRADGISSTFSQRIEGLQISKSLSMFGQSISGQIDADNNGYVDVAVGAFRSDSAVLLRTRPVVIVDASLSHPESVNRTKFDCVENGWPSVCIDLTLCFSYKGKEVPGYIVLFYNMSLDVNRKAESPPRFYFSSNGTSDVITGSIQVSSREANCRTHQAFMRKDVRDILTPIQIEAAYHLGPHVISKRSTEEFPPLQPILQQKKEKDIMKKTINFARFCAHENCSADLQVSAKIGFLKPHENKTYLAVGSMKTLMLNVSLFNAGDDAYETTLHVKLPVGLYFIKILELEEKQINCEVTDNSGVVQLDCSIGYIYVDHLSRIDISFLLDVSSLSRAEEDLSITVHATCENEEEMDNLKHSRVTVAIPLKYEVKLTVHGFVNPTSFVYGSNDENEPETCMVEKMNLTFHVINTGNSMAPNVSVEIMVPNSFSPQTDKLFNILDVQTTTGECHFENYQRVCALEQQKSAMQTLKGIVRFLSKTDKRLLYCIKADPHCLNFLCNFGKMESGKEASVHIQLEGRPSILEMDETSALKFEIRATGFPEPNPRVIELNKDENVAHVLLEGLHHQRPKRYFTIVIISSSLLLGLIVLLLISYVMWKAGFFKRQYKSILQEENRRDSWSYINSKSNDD
Chain of α4β7 integrin (P26010 20-798): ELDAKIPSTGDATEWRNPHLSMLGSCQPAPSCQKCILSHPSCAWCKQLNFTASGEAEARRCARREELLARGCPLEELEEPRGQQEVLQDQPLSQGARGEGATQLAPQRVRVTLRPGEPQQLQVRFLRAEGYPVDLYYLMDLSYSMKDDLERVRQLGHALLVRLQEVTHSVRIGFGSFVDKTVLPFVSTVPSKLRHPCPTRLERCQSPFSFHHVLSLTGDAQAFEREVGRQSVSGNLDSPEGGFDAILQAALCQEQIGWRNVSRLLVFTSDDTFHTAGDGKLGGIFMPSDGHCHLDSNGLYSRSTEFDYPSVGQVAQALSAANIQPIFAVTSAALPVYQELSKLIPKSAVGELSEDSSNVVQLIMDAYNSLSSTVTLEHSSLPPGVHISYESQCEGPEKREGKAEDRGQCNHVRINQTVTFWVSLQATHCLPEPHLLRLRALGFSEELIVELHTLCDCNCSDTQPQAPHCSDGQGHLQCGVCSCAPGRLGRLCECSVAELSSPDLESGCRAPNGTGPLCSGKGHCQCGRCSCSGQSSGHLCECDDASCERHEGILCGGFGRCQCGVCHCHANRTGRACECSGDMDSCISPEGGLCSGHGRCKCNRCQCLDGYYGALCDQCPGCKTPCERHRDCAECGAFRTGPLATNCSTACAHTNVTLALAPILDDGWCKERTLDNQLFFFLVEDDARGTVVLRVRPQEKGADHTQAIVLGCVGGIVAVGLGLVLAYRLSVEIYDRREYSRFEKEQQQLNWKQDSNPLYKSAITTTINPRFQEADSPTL

Row | SMILES | EC50 [1] [nM] | EC50 [2] [nM] | also measured
1 | N#Cc1ccc(-c2ccc(C[C@H](NC(=O)c3c(F)cc(N4CCO[C@H](C(F)(F)F)C4)cc3F)C(=O)O)c3cccnc23)c(Cl)c1 [Example 85, (S)-3-(8-(2-chloro-4-cyanophenyl)quinolin-5-yl)-2-(2,6-difluoro-4-((S)-2-(trifluoromethyl)morpholino)benzamido)propanoic acid] | 25.4 | – | –
2 | O=C(N[C@@H](Cc1ccc(-c2c(Cl)cncc2Cl)c2ncccc12)C(=O)O)c1c(F)cccc1F [Example 20, (S)-3-(8-(3,5-dichloropyridin-4-yl)quinolin-5-yl)-2-(2,6-difluorobenzamido)propanoic acid] | 186 | – | –
3 | CC[C@@H](Nc1cc(F)c(C(=O)N[C@@H](Cc2ccc(-c3c(OC)cc(C)n(C)c3=O)c3ncccc23)C(=O)O)c(F)c1)C(F)(F)F [Example 341] | – | 0.6 | –
4 | Cc1nc(-c2ccc(C[C@H](NC(=O)c3c(F)cc(N4CCOC[C@@H]4C(F)(F)F)cc3F)C(=O)O)c3cccnc23)ncc1F [Example 301] | – | 9.4 | –
5 | Cc1cc(N2CCOC[C@@H]2C(F)(F)F)cc(F)c1C(=O)N[C@@H](Cc1ccc(-c2cc(C(F)(F)F)c(C)n(C)c2=O)c2ncccc12)C(=O)O [Example 448] | – | – | EC50 [3]: 0.307 nM
6 | O=C(N[C@@H](Cc1ccc(-c2c(Cl)cc(F)cc2Cl)c2ncc(F)cc12)C(=O)O)c1c(F)cccc1F [Example 32, (S)-3-(8-(2,6-dichloro-4-fluorophenyl)-3-fluoroquinolin-5-yl)-2-(2,6-difluorobenzamido)propanoic acid] | 75.9 | – | –
7 | Cn1c2c(cc(-c3ccc(C[C@H](NC(=O)c4c(F)cc(N5CCOC[C@@H]5C(F)(F)F)cc4F)C(=O)O)c4cccnc34)c1=O)CNCC2 [Example 438] | – | – | EC50 [3]: 0.291 nM
8 | Cc1cccc(F)c1C(=O)N[C@@H](Cc1ccc(-c2ccc(C#N)cc2Cl)c2ncccc12)C(=O)O [Example 1, (S)-3-(8-(2-chloro-4-cyanophenyl)quinolin-5-yl)-2-(2-fluoro-6-methylbenzamido)propanoic acid] | 21.2 | – | –
9 | N#Cc1ccc(-c2ccc(C[C@H](NC(=O)c3c(F)cc(NS(=O)(=O)c4ccc(-c5ccnc(F)c5)cc4)cc3F)C(=O)O)c3cccnc23)c(Cl)c1 [Example 47, (S)-3-(8-(2-chloro-4-cyanophenyl)quinolin-5-yl)-2-(2,6-difluoro-4-((4-(2-fluoropyridin-4-yl)phenyl)sulfonamido)benzamido)propanoic acid] | 2.4 | – | –
10 | N#Cc1ccc(-c2ccc(C[C@H](NC(=O)c3c(F)cc(C(=O)NCC(F)(F)F)cc3F)C(=O)O)c3cccnc23)c(Cl)c1 [Example 28, (S)-3-(8-(2-chloro-4-cyanophenyl)quinolin-5-yl)-2-(2,6-difluoro-4-((2,2,2-trifluoroethyl)carbamoyl)benzamido)propanoic acid] | 33.5 | – | –
11 | Cc1cc(C(F)(F)F)c(-c2ccc(C[C@H](NC(=O)c3c(F)cc(N4C[C@H](C)OC[C@@H]4C(F)(F)F)cc3F)C(=O)O)c3cccnc23)c(=O)n1C [Example 198] | – | 1.4 | –
12 | CCOCc1cc(OC)c(-c2ccc(C[C@H](NC(=O)c3c(F)cccc3F)C(=O)O)c3ccc(C)nc23)c(OC)c1 [Example 31, (S)-2-(2,6-difluorobenzamido)-3-(8-(4-(ethoxymethyl)-2,6-dimethoxyphenyl)-2-methylquinolin-5-yl)propanoic acid] | 19.3 | – | –
13 | Cc1cc(C(F)(F)F)c(-c2ccc(C[C@H](NC(=O)c3c(F)cc(N4CCOC[C@@H]4C(F)(F)F)cc3C(C)C)C(=O)O)c3cccnc23)c(=O)n1C [Example 470] | – | – | EC50 [3]: 0.181 nM
14 | Cc1cc(C(F)(F)F)c(-c2ccc(C[C@H](NC(=O)c3c(F)cc(N4CCOC[C@@H]4CC(F)F)cc3F)C(=O)O)c3cccnc23)c(=O)n1C [Example 130, (S)-2-(4-((S)-3-(2,2-difluoroethyl)morpholino)-2,6-difluorobenzamido)-3-(8-(1,6-dimethyl-2-oxo-4-(trifluoromethyl)-1,2-dihydropyridin-3-yl)quinolin-5-yl)propanoic acid] | 0.5 | – | –
15 | Cc1cc(C(F)(F)F)c(-c2ccc(C[C@H](NC(=O)c3c(F)cc(N4CCOC[C@@H]4C(F)(F)F)cc3F)C(=O)O)c3cc(N(C)C)cnc23)c(=O)n1C [Example 281] | – | 5.5 | –
16 | Cc1cc(N2CCOC[C@@H]2C(F)(F)F)cc(F)c1C(=O)N[C@@H](Cc1ccc(-c2nc(C)c(C)n(C)c2=O)c2ncccc12)C(=O)O [Example 477] | – | – | EC50 [3]: 0.115 nM
17 | CC[C@@H](N1CCCc2c1cc(F)c(C(=O)N[C@@H](Cc1ccc(-c3c(C(F)(F)F)cc(C)n(C)c3=O)c3ncccc13)C(=O)O)c2F)C(F)(F)F [Example 146, (S)-2-(5,7-difluoro-1-((R)-1,1,1-trifluorobutan-2-yl)-1,2,3,4-tetrahydroquinoline-6-carboxamido)-3-(8-(1,6-dimethyl-2-oxo-4-(trifluoromethyl)-1,2-dihydropyridin-3-yl)quinolin-5-yl)propanoic acid] | 0.6 | – | –
18 | N#Cc1ccc(-c2ccc(C[C@H](NC(=O)c3c(F)cc(N4CCS(=O)(=O)CC4)cc3F)C(=O)O)c3cccnc23)c(Cl)c1 [Example 80, (S)-3-(8-(2-chloro-4-cyanophenyl)quinolin-5-yl)-2-(4-(1,1-dioxidothiomorpholino)-2,6-difluorobenzamido)propanoic acid] | 18.1 | – | –
19 | CC[C@@H](Nc1cc(F)c(C(=O)N[C@@H](Cc2ccc(-c3c(C(F)(F)F)ccc4cccnc34)c3ncccc23)C(=O)O)c(F)c1)C(F)(F)F [Example 290] | – | 6.5 | –
20 | N#Cc1ccc(-c2c(F)cc(C[C@H](NC(=O)c3c(F)cccc3F)C(=O)O)c3cccnc23)c(Cl)c1 [Example 34, (2S)-3-(8-(2-chloro-4-cyanophenyl)-7-fluoroquinolin-5-yl)-2-(2,6-difluorobenzamido)propanoic acid] | 39.5 | – | –
21 | Cc1cc(C(F)(F)F)c(-c2ccc(C[C@H](NC(=O)c3c(F)cc(N4CCOC5(COC5)C4)cc3F)C(=O)O)c3cccnc23)c(=O)n1C [Example 459] | – | – | EC50 [3]: 2.07 nM

Continued, in another order:

Row | EC50 [1] [nM] | EC50 [2] [nM] | SMILES | also measured
22 | 1.3 | – | Cc1cc(C(F)(F)F)c(-c2ccc(C[C@H](NC(=O)c3c(F)cc(N4CCC[C@@H]4C(F)(F)F)cc3F)C(=O)O)c3cccnc23)c(=O)n1C [Example 132, (S)-2-(2,6-difluoro-4-((R)-2-(trifluoromethyl)pyrrolidin-1-yl)benzamido)-3-(8-(1,6-dimethyl-2-oxo-4-(trifluoromethyl)-1,2-dihydropyridin-3-yl)quinolin-5-yl)propanoic acid] | –
23 | – | 7.7 | CC[C@@H](Nc1cc(F)c(C(=O)N[C@@H](Cc2ccc(-c3cn(C)c(=O)cc3C(F)(F)F)c3ncccc23)C(=O)O)c(F)c1)C(F)(F)F [Example 296] | –
24 | 81.6 | – | CCOCc1cc(OC)c(-c2cc(F)c(C[C@H](NC(=O)c3c(F)cccc3F)C(=O)O)c3cccnc23)c(OC)c1 [Example 39, (S)-2-(2,6-difluorobenzamido)-3-(8-(4-(ethoxymethyl)-2,6-dimethoxyphenyl)-6-fluoroquinolin-5-yl)propanoic acid] | –
25 | – | 48.2 | CC(=O)Cc1cc(F)c(C(=O)N[C@@H](Cc2ccc(-c3ccc(C#N)cc3Cl)c3ncccc23)C(=O)O)c(F)c1 [Example 221] | –
26 | – | 3.2 | CC[C@@H](Nc1cc(F)c(C(=O)N[C@H](Cc2ccc(-c3c(C(F)(F)F)cc(C)n(C)c3=O)c3ncccc23)C(=O)O)c(F)c1)C(F)(F)F [Example 253] | –
27 | 4.5 | – | COc1cc(F)cc(C(F)(F)F)c1-c1ccc(C[C@H](NC(=O)c2c(F)cccc2F)C(=O)O)c2cccnc12 [Example 6, (2S)-2-(2,6-difluorobenzamido)-3-(8-(4-fluoro-2-methoxy-6-(trifluoromethyl)phenyl)quinolin-5-yl)propanoic acid] | –
28 | – | 3.5 | CC[C@@H](Nc1cc(F)c(C(=O)N[C@@H](Cc2ccc(-c3c(C(F)(F)F)cc(F)c4cccnc34)c3ncccc23)C(=O)O)c(F)c1)C(F)(F)F [Example 256] | –
29 | – | 62.3 | C[C@H](NC(=O)c1cc(F)c(C(=O)N[C@@H](Cc2ccc(-c3ccc(C#N)cc3Cl)c3ncccc23)C(=O)O)c(F)c1)C(F)(F)F [Example 195] | –
30 | – | 82.2 | N#Cc1ccc(-c2ccc(C[C@H](NC(=O)c3c(F)cc(N4CCCCC4)cc3F)C(=O)O)c3cccnc23)c(Cl)c1 [Example 278] | –
31 | – | 0.3 | Cc1cc(C(F)(F)F)c(-c2ccc(C[C@H](NC(=O)c3c(F)cc(N4CCOC[C@@H]4C(F)(F)F)cc3F)C(=O)O)c3cc(F)cnc23)c(=O)n1C [Example 159] | –
32 | – | 97.1 | N#Cc1ccc(-c2ccc(C[C@H](NC(=O)c3c(F)cc(O[C@H](c4ccccc4)C(F)(F)F)cc3F)C(=O)O)c3cccnc23)c(Cl)c1 [Example 175] | –
33 | – | 26.1 | O=C(N[C@@H](Cc1ccc(Nc2nccc3ccncc23)c2ncccc12)C(=O)O)c1c(Cl)cccc1Cl [Example 336] | –
34 | – | 1.2 | CC[C@@H](Nc1cc(F)c(C(=O)N[C@@H](Cc2ccc(-c3c(C)c(C(F)(F)F)cn(C)c3=O)c3ncccc23)C(=O)O)c(F)c1)C(F)(F)F [Example 188] | –
35 | – | 3.5 | Cc1cc(C(F)(F)F)c(-c2ccc(C[C@H](NC(=O)c3c(F)cc(N4CC5CCC4CO5)cc3F)C(=O)O)c3cccnc23)c(=O)n1C (stereo partly shown) [Example 257] | –
36 | 0.8 | – | Cc1cc(C(F)(F)F)c(-c2ccc(C[C@H](NC(=O)c3c(F)cc(N4CCOC[C@@H]4CC(F)(F)F)cc3F)C(=O)O)c3cccnc23)c(=O)n1C [Example 131, (S)-2-(2,6-difluoro-4-((S)-3-(2,2,2-trifluoroethyl)morpholino)benzamido)-3-(8-(1,6-dimethyl-2-oxo-4-(trifluoromethyl)-1,2-dihydropyridin-3-yl)quinolin-5-yl)propanoic acid] | –
37 | – | 1.7 | Cc1cc(C(F)(F)F)c(-c2ccc(C[C@H](NC(=O)c3c(F)cc(N4C[C@H](C)OC[C@@H]4C)cc3F)C(=O)O)c3cccnc23)c(=O)n1C [Example 204] | –
38 | – | 0.7 | CC[C@@H](Nc1cc(F)c(C(=O)N[C@@H](Cc2ccc(-c3c(Cl)cc(C)n(C)c3=O)c3ncccc23)C(=O)O)c(F)c1)C(F)(F)F [Example 343] | –
39 | – | 1.9 | Cc1ccnc(-c2ccc(C[C@H](NC(=O)c3c(F)cc(N4CCOC[C@@H]4C(F)(F)F)cc3F)C(=O)O)c3cccnc23)c1N(C)C [Example 212] | –
40 | – | 2.3 | CCOCc1cc(OC)c(-c2ccc(C[C@H](NC(=O)c3c(Cl)cc4[nH]ccc4c3Cl)C(=O)O)c3cccnc23)c(OC)c1 [Example 235] | –
